Tests used:
[1] = system: Rat Intracerebral Hemorrhage (ICH) Model; test: Neurological severity score (NSS) test in rat ICH model; assay type: in vivo; conditions: end of second week (day 14) after ICH; vs human fibroblast control group; P<0.05 significant
Experimental: (§1) Functional neurological tests. Functional neurological outcomes were measured by the neurological severity score test (NSS) (Chen et al., 2001) and the corner turn test (Zhang et al., 2002), as previously described in Seyfried et al., 2006. Statistical analysis. Statistical analysis of functional scores was performed using the Student's two-tailed t-test for independent samples.

[2] = system: Rat Intracerebral Hemorrhage (ICH) Model; test: Corner turn test in rat ICH model; assay type: in vivo; conditions: end of second week (day 14) after ICH; vs human fibroblast control group; P<0.05 significant
Experimental: as §1

[3] = system: Rat ICH Model; test: Striatal tissue loss (H & E staining, image analysis) in rat ICH model; assay type: in vivo; conditions: 14 days after ICH; relative to contralateral striatum; mean±standard error; mannitol 1.5 g/kg iv, 1 million cells intraarterial
Experimental: Thirty-six male Wistar rats weighing from 270 to 320 grams were used for intracerebral hemorrhage studies. Stereotactic stabilization and localization were used in the rats under general anesthesia as previously described (Seyfried et al., 2006). ICH was induced by injecting 100 μl of autologous blood, obtained from the femoral vein, into the right striatum at a steady infusion rate of 10 μl per minute (Seyfried et al., 2004). Twenty four hours after ICH, the animals were divided into four experimental groups. Group 1 received only intraarterial (via internal carotid artery) injection of 1 million human primary fibroblasts in phosphate-buffered saline (PBS) as a control. Group 2 received intravenous injection of mannitol at a dose of 1.5 g/kg in PBS via the tail vein. Group 3 received intraarterial (internal carotid artery) injection of 1 million hBMSCs in PBS. Group 4 received intravenous injection of mannitol at a dose of 1.5 g/kg followed 10 minutes later by intraarterial injection of 1 million hBMSCs in PBS. All treatments were administered 24 hours after induction of ICH. All rats also received a daily intraperitoneal injection of 100 mg/kg BrdU starting at day 1 after ICH for 14 days.
Histology and immunohistochemistry. […] Percentage of the striatal tissue loss compared to the contralateral striatum was calculated using an image analysis system (Data Translation, Marlboro, Mass.). […]

[4] = system: BrdU-positive cells in the boundary around the lesion; test: BrdU immunostaining, proliferating cells around the lesion; assay type: in vivo, rat; conditions: 14 days after ICH; vs control group; P<0.05

OC[C@@H](O)[C@@H](O)[C@H](O)[C@H](O)CO [mannitol]
functional neurological outcome assessed by NSS [1]: failed to show any statistically significant neurological improvement | functional neurological outcome assessed by corner turn test [2]: failed to show any statistically significant neurological improvement | percentage loss of striatal tissues on the side of hemorrhage [3]: 25.9±1.75% | BrdU positive staining cells around the injured site [4]: significantly increased the BrdU labeling
